Assay results taken from patent publication US20160144055A1, “GENE THERAPY VECTOR FOR TREATMENT OF STEROID GLAUCOMA” (priority 2009, published 2016).
Where “and” joins values, the source holds several entries; their conditions need not be identical. Identical values can stand only once. Like-named read-outs stand apart in the source and are kept apart here.

Columns and labels:
[1] = tested on: MMP1 expression in primary HTM cells; experiment: Endogenous MMP1 expression in glucocorticoid-treated primary HTM cells (real-time TaqMan PCR); type: cell-based, human
Procedure: To generate primary HTM cells, the trabecular meshwork tissue was dissected from residual cornea rims after surgical corneal transplantation at the University of North Carolina Eye Clinic, Chapel Hill, N.C., United States of America. Trabecular meshworks were isolated from surrounding tissue, cut into small pieces and treated with 1 mg/ml collagenase type IV (Worthington, Lakewood, N.J., United States of America), as previously described (Vittitow et al., Mol Via 2002; 8:32-44). Cells were maintained at 37° C., 7% CO2 in MEM Richter's modification medium (HyClone, Thermo Fisher Scientific, Waltham, Mass., United States of America) supplemented with 20% FBS and 50 ug/ml gentamicin (Gibco Invitrogen, Carlsbad, Calif., United States of America). At confluency, cells were passed and maintained in the same medium but with 10% FBS (complete medium). All cells were used at passages 4 to 6. These outflow pathway cultures include cells from the three distinct regions of the trabecular meshwork plus cells lining the Schlemm's canal (SC). Because most of the cells in these cultures come from the trabecular meshwork they are commonly referred to as trabecular meshwork cells. The cells used in this study were from a person (HTM-109), a person (HTM-95), a person (HTM-106) and a person (HTM-140).
Drug treatments on the HTM cells were conducted in complete media. HTM cells were grown to pre-confluency and exposed to drugs as follows. Treatment with dexamethasone (DEX; Sigma, St. Louis, Mo., United States of America) was conducted at a final concentration of 0.1 uM. DEX was reconstituted in absolute ethanol at 0.1 mM and diluted 1,000-fold into complete media every 48 to 72 hours for the duration of the experiment. Treatment with triamcinolone acetonide (Kenacort-A; Bristol-Myers Squibb, New York, N.Y., United States of America) was performed at a final concentration of 0.1 mg/ml. Kenacort-A 40 mg/ml suspension was well mixed and diluted into complete medium 400-fold at the time of use. The concentration of 0.1 mg/ml triamcinolone acetonide was chosen because intravitreal injections of 1 mg/ml are widely used in the clinical setting, which would result in a lower concentration of the steroid in the aqueous humor. In addition, the concentration of 0.1 mg/ml has been successfully studied in trabecular meshwork cells (Fan B J et al., Invest Ophthalmol Vis Sci. 2008; 49:1886-1897). Treatment with prednisolone was conducted at a final concentration of 200 uM (80 μg/ml). Prednisolone 21-acetate (Sigma) was reconstituted in ethanol at 200 mM (80 mg/ml) as a suspension and mixed well prior dilution of 1,000-fold into the culture medium. The drugs were exposed to the cells for the period of time described in results. Untreated control dishes received the same volume of absolute ethanol (drug vehicle) under identical conditions.
HTM cells were scraped from tissue culture dishes with guanidine thiocyanate buffer (RLT, Qiagen, Valencia, Calif., United States of America). Total RNA was extracted by loading the solution onto a QIA Shredder™ column (Qiagen) and continued by the use of the RNeasy Mini kit with on-column RNase-free DNAse digestion according to manufacturer's recommendations (Qiagen). Purified RNA was eluted in 30 ul RNase-free water and concentration measured with a NanoDrop ND-100 spectrophotometer (Thermo Fisher Scientific). For the tissue, human trabecular meshworks were excised from one week RNAlater (Ambion Applied Biosystems, Austin, Tex., United States of America) immersed anterior segments. One half of the isolated trabecular meshwork tissue was homogenized on 350 μl of RLT and RNA extraction continued as described for the cells. Recoveries were between 1.4 to 2 ug of RNA per human trabecular meshwork. […]

sheep eyes = conditions: cited from earlier work
[2] = tested on: sheep eyes treated with triamcinolone or prednisolone; experiment: IOP in sheep given triamcinolone in one eye and prednisolone in the other, with Ad vector; type: in vivo, sheep (Ovis aries)
Text: After determining the baseline measurement of IOP over the course of several days, two drops of 0.5% prednisolone acetate (Ultracortenol; Novartis Ophthalmics, Hettlingen, Switzerland) was topically instilled 3-times daily at 7 AM, 2 PM, and 7 PM for durations that lasted for 10-15 days depending on the experiment. In some experiments, prednisolone was instilled bilaterally; in others only one eye received the corticosteroid.
The injection procedure took less than 30 seconds.
Additional experiments (employing 2 separate protocols, each on one sheep) tested the effects of the injection of Ad virus carrying active MMP1 transgene on the IOP of contralateral eyes treated with unilateral triamcinolone and unilateral prednisolone. In the first protocol of this set, one eye of a sheep was administered triamcinolone via a sub-Tenon injection two weeks before the start of IOP measurements. The point at which IOP measurements were initiated was designated “Day 0” of the experiment. […] After recording these measurements, thrice daily instillations of prednisolone were begun on eye OS. Three-days later, when the IOP's of both eyes were nearly identical, Ad virus carrying active MMP1 transgene was bilaterally injected into the anterior chambers of the eyes. […] At the point of virus injection, IOP of eye OD had been elevated for 17 days; after virus injection, IOP was reduced up to Day 24. […]

[3] = tested on: sheep eyes with triamcinolone-induced ocular hypertension; conditions: for IOP on Day 4 after bilateral sub-Tenon injection: n=4, before virus
Procedure: All animal experiments were performed in accordance with the Association for Research in Vision and Ophthalmology (ARVO) guidelines. A total of 18 healthy (female) sheep (Corriedale breed) between 12 and 24 months of age, and weighing 35 to 40 kg, were selected from a local ranch in Corrientes, Argentina for this study. The eyes and general health of the animals were considered normal by an ophthalmologist and a veterinarian, respectively. Sheep were tagged for individual identification on their ear lobes and herded from pasture whenever it was necessary to 1) topically instill prednisolone, 2) inject a sub-Tenon depot of triamcinolone acetonide, 3) inject adenoviral vectors carrying the MMP1 transgene intracamerally via the cornea, or 4) measure IOP by applanation tonometry. To apply prednisolone, the sheep were guided into a funnel corral ending in a loose-fitting yoke. This arrangement allowed movement and holding of the head by one person while another instilled the drops. To measure IOP with a Perkins tonometer, the sheep were also guided into the funnel corral and then into the neck yoke. For the sub-Tenon injection of triamcinolone, and the trans-corneal injections of adenoviral vectors, sheep were anesthetized topically. Between all procedures, the sheep were free to pasture.
In those sheep in which triamcinolone was used to induce ocular hypertension, the following general protocol was applied. Two drops of proparacaine (0.5%) were topically instilled to the ocular surface. Then, a single 1-ml injection of sterile triamcinolone acetonide (40 mg/ml, or 4%; Bristol-Myers Squibb Co., Princeton, N.J., United States of America) was administered via sub-Tenon injection using a 30G needle inserted 5 mm from the limbus.
For the injections, the distance from the limbus was determined from the width of a 5 mm×30 mm Schirmer strip that was held between the limbus and the injection site. The conjunctiva at the injection site was grasped with fine forceps and an initial oblique conjunctival puncture was made with the needle bevel facing upwards. […] The needle was pushed through Tenon's capsule until the tip reached the sclera (as determined by feel). Care was taken to avoid puncturing the sclera itself. Also, since Tenon's capsule consists of several layers, care was also taken to administer a sub-Tenon (to create a juxta-scleral depot), and not an intra-Tenon's injection. Immediately following the injection the needle was rapidly withdrawn. The volume injected (1 ml) yielded a characteristic 180°-240° quasi-donut-shaped bolus of fluid around the limbus. Each injected eye then received drops of TOBREX® (tobramycin ophthalmic solution, 0.3%, Alcon Laboratories, Inc., Fort Worth, Tex., United States of America).
Animals were led to a funnel corral and their heads were suitably oriented within a neck yoke to enable an ophthalmologist to measure IOP with the Perkins tonometer. Before the IOP measurement, 2 drops of topical 0.5% proparacaine (Alcon Argentina) followed by 2 drops of 0.25% fluorescein were instilled. Two sets of measurements were taken on each eye alternating first one eye and then the other. All IOP measurements were taken between 2 PM and 4 PM every 2 or 3 days. The Perkins tonometry readings were converted to mmHg as described in detail previously (Kass et al., Arch Ophthalmol. 2002; 120:701-713).
Details of the design, construction, characterization and titration of the steroid-inducible MMP1 adenoviruses are provided in Example 2, above. At the time of viral administration, an Eppendorf™ tube containing the frozen virus suspension was thawed in the field as the sheep were immobilized within a narrow passage ending in a yoke. Two drops of topical proparacaine 0.5% (Alcon, Argentina) were instilled on the eyes as an anesthetic. Following this 30 μl of the virus suspension was injected into the eye using a Hamilton syringe with a 28G needle.

| SMILES | MMP1 cDNA levels (RQ) ([1]; 80 μg/ml, 24 hours, HTM-109 cells) | downregulation of MMP1 at the transcriptional level ([1]; shorter time periods) [fold] | IOP increase (sheep eyes; 0.5% topically three times daily, within 2 weeks) | incidence of intraocular pressure elevation in treated eyes (sheep eyes; 0.5% topically three times daily) [%] | time for IOP to decline to baseline after discontinuation (sheep eyes; in vivo) | MMP1 expression, RQ values (18S normalized MMP1 cDNA) ([1]; 0.1 μM DEX, 3 days, HTM-109 cells) | MMP1 expression, RQ values (18S normalized MMP1 cDNA) ([1]; 0.1 μM DEX, 6 days, HTM-109 cells) | MMP1 expression, RQ values (18S normalized MMP1 cDNA) ([1]; DEX removed from medium at 3 days, measured at day 6) | downregulation of MMP1 at the transcriptional level ([1]; DEX-treated cells for 6 days) [fold] | IOP of the triamcinolone-treated eye on Day 15 ([2]; FIGS. 11 and 12) | IOP of the eye given triamcinolone relative to fellow eye on Day 0 ([2]; sub-Tenon injection two weeks before) | MMP1 cDNA levels (RQ) ([1]; 0.1 mg/ml, 12 hours, HTM-109 cells) | IOP 15 days after sub-Tenon drug injection ([3]; FIG. 9) | IOP of the fellow eyes on Day 18 ([3]; depot nearly consumed, eyes had also received Ad vectors on Day 4, n=4 each) | IOP on Day 4 after bilateral sub-Tenon injection ([3]; eyes then injected with active MMP1 vector) [mmHg] | IOP on Day 4 after bilateral sub-Tenon injection ([3]; eyes then injected with mutated MMP1 vector) [mmHg] | IOP on Day 4 after unilateral sub-Tenon injection ([3]; n=3, before null Ad injection) [mmHg] | time the depot subsisted in the eye as judged by IOP ([3]; sub-Tenon depot) [days] | time the depots subsisted as determined by the IOP ([3]; sub-Tenon depot) |
| --- | --- | --- | --- | --- | --- | --- | --- | --- | --- | --- | --- | --- | --- | --- | --- | --- | --- | --- | --- |
| CC(=O)OCC(=O)[C@@]1(O)CC[C@H]2[C@@H]3CCC4=CC(=O)C=C[C@]4(C)[C@H]3[C@@H](O)C[C@@]21C [prednisolone, Prednisolone 21-acetate] | 0.16±0.02 | 6.2 | approximately 2.5 fold | 100 | 1-3 weeks |  |  |  |  |  |  |  |  |  |  |  |  |  |  |
| C[C@@H]1C[C@H]2[C@@H]3CCC4=CC(=O)C=C[C@]4(C)[C@@]3(F)[C@@H](O)C[C@]2(C)[C@@]1(O)C(=O)CO [DEX, dexamethasone] |  |  |  |  |  | 0.03±0.0002 | 0.002±0.0002 | 0.03±0.002 | 500 |  |  |  |  |  |  |  |  |  |  |
| CC1(C)O[C@@H]2C[C@H]3[C@@H]4CCC5=CC(=O)C=C[C@]5(C)[C@@]4(F)[C@@H](O)C[C@]3(C)[C@]2(C(=O)CO)O1 [triamcinolone acetonide] |  | 2.4 |  |  |  |  |  |  |  | above 25 mmHg | about twice that of eye OS | 0.42±0.1 | less than 20 mmHg | 10.5±0.4 mmHg and 12.4±0.2 mmHg | 22.1±0.2 | 22.6±0.8 | 25.2±0.4 | 14 to 20 | 2-3 weeks |
